pIC50: −log10 of the molar value.

Our source for the IC50 values is ChEMBL document CHEMBL5726598, “Compounds, compositions and methods” (2017).

The target of this assay is T1, Receptor-interacting serine/threonine-protein kinase 1 (Homo sapiens, UniProt Q13546).
T1 sequence (Q13546 whole entry): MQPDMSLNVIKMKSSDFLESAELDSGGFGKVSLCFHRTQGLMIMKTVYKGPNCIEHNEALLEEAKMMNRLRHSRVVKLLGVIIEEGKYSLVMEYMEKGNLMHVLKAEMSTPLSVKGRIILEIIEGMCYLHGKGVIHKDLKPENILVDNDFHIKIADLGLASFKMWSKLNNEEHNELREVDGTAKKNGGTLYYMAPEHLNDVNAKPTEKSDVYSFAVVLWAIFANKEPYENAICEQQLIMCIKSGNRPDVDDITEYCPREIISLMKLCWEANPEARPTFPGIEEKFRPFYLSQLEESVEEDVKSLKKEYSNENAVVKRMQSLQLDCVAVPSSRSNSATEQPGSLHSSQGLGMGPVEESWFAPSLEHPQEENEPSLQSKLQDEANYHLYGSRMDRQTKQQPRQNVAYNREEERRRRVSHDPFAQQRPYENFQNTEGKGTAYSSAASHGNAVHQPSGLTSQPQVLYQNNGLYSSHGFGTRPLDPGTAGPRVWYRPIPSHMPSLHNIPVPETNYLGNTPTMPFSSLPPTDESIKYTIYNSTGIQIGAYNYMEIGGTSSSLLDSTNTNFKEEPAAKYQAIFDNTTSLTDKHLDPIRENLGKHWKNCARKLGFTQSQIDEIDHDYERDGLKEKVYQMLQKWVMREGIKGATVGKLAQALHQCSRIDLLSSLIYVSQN
The experiment in a line: For negative control the enzyme addition was replaced by assay buffer only.
As to `CN1C(=O)[C@H](NC(=O)c2cc(Oc3ccc(F)cc3F)ccn2)CCc2cccnc21`, the negative logarithm of the IC50 (pIC50) is less than 5.52. As for `CN1C(=O)[C@@H](NC(=O)c2cc(C3(c4ccccc4)CC3)on2)COc2cnccc21`, the figure is 6.00 to 10.00.

`CN1C(=O)[C@@H](NC(=O)c2nn(Cc3ccccc3C#N)cc2F)COc2cccnc21`: the negative logarithm of the IC50 (pIC50) is 6.00 to 10.00.

Broadly, the pIC50 is −log10 of the IC50, conventionally taken in molar units. A high value points to a small IC50.
